# Where a name gives a salt, the structure may show the parent alone. Read-outs that look alike come from different tables or passages of the source.
# System: male Wistar rats
# Test: Blood pressure in anesthetized rats after intravenous bolus administration
# Type: in vivo
# Conditions: tail vein bolus; for ED30: Rattus norvegicus, iv; for DBP % change: diastolic blood pressure relative to that before administration (=100%); for DBP % change / SBP % change: mean ± SE, n=4; for SBP % change: systolic blood pressure relative to that before administration (=100%)
# Experimental: The subject rats anesthetized with pentobarbital-Na (50 mg/kg, i.p.) were fixed at the dorsal position, and the blood pressure was successively recorded on a polygraph via polyethylene catheter inserted in left common carotid artery and piezoelectric transducer. The drug was bolus- administered at a dose of 1 ml/kg through a wing needle dwelled in tail vein.
# As the subject animal, male Wistar rats (about 300 g body weight, 4 rats per group) were used.
# The test drug was prepared by dissolving 10 mg thereof in 0.3 ml of ethanol and 0.1 ml of Tween 80 and diluting with saline.
# [1] = estimated dose necessary for 30% reduction of diastolic blood pressure, read-out: DBP ED30
# [2] = estimated dose necessary for 30% reduction of systolic blood pressure, read-out: SBP ED30
Compound,ED30 [1] [mg/kg],ED30 [2] [mg/kg],DBP % change (dose 30 µg/kg) [%],DBP % change (dose 100 µg/kg) [%],DBP % change (dose 300 µg/kg) [%],SBP % change (dose 30 µg/kg) [%],SBP % change (dose 100 µg/kg) [%],SBP % change (dose 300 µg/kg) [%],DBP % change (dose 1000 µg/kg) [%],SBP % change (dose 1000 µg/kg) [%],DBP % change (dose 10 µg/kg) [%],SBP % change (dose 10 µg/kg) [%]
"COC(=O)C1=C(C)NC(C)=C(C(=O)OCCc2ccc(N3CCN(C(c4ccccc4)c4ccccc4)CC3)cc2)C1c1cccc([N+](=O)[O-])c1 (racemic) [compound 3, reference compound]",0.046,0.63,75±5,61±2,53±3,79±1,76±4,72±3,–,–,–,–
"COC(=O)C1=C(C)NC(C)=C(C(=O)OCCc2ccc(N3CCN(C(c4ccccc4)c4ccccc4)CC3)cc2)[C@@H]1c1cccc([N+](=O)[O-])c1 [(R)-(-)-compound 3, (R)-(-)-4-(4-benzhydrylpiperadino)phenetyl methyl 1,4-dihydro-2,6-dimethyl-4-(3-nitrophenyl)-3,5-pyridinedicarboxylate hydrochloride]",–,–,–,94±1,–,–,93±2,–,91±2,93±3,–,–
"COC(=O)C1=C(C)NC(C)=C(C(=O)OCCc2ccc(N3CCN(C(c4ccccc4)c4ccccc4)CC3)cc2)[C@H]1c1cccc([N+](=O)[O-])c1 [(S)-(+)-compound 3, (S)-(+)-4-(4-benzhydrylpiperadino)phenetyl methyl 1,4-dihydro-2,6-dimethyl-4-(3-nitrophenyl)-3,5-pyridinedicarboxylate hydrochloride]",0.037,0.16,74±2,55±4,–,86±3,71±5,–,–,–,89±1,86±3

# From patent EP0424901A1, “Dihydropyridine derivatives and pharmaceutical compositions” (THE GREEN CROSS CORPORATION, priority 1989, dated 1991)
